Values joined by “and” are separate entries in the source; they are usually repeats but may differ in a detail not shown here. Equal values may be shown once. Toxic doses and inconclusive results are not listed. Cut-off read from the data, not from the text of the source: active = T/C of 150% or more; inactive = T/C below 125%. Peptide text beside a SMILES is read from it. * marks the point of attachment. ONp = O=[N+]([O-])c1ccc(O*)cc1; Cbz = O=C(OCc1ccccc1)*
Tested on: L1210 leukemia ip in BDF1 mice, survival T/C
Assay: NCI In Vivo Anticancer Drug Screen. Data for tumor model L1210 Leukemia (intraperitoneal) in B6D2F1 (BDF1) mice
Details: endpoint: mean survival time, higher = longer survival
In short: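 Ratio derived from survival: compound-dosed mice over vehicle-dosed mice, all bearing a transplantable tumor.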

[1] = dose: 100.0 mg/kg/injection, schedule: Q01DX001 (ip), vehicle: saline
[2] = dose: 200.0 mg/kg/injection, schedule: Q01DX001 (ip), vehicle: saline
[3] = dose: 100.0 mg/kg/injection, schedule: Q04DX003 (ip), vehicle: saline with Tween-80
[4] = dose: 100.0 mg/kg/injection, schedule: Q01DX001 (ip), vehicle: Klucel (hydroxypropylcellulose) (HPC)
[5] = dose: 100.0 mg/kg/injection, schedule: Q01DX009 (ip), vehicle: Klucel (hydroxypropylcellulose) (HPC)
[6] = dose: 200.0 mg/kg/injection, schedule: Q01DX009 (ip), vehicle: Klucel (hydroxypropylcellulose) (HPC)
[7] = dose: 100.0 mg/kg/injection, schedule: Q01DX009 (ip), vehicle: saline with Tween-80
[8] = dose: 100.0 mg/kg/injection, schedule: Q04DX002 (ip), vehicle: saline with Tween-80
[9] = dose: 200.0 mg/kg/injection, schedule: Q01DX009 (ip), vehicle: saline with Tween-80
[10] = dose: 200.0 mg/kg/injection, schedule: Q04DX002 (ip), vehicle: saline with Tween-80
[11] = dose: 400.0 mg/kg/injection, schedule: Q01DX009 (ip), vehicle: saline with Tween-80
[12] = dose: 400.0 mg/kg/injection, schedule: Q04DX002 (ip), vehicle: saline with Tween-80
[13] = dose: 400.0 mg/kg/injection, schedule: Q01DX001 (ip), vehicle: saline
[14] = dose: 200.0 mg/kg/injection, schedule: Q04DX003 (ip), vehicle: saline with Tween-80
[15] = dose: 400.0 mg/kg/injection, schedule: Q04DX003 (ip), vehicle: saline with Tween-80
[16] = dose: 50.0 mg/kg/injection, schedule: Q01DX009 (ip), vehicle: saline with Tween-80

Measured: T/C

CC(=O)OCC1OC(N2CCc3cc([N+](=O)[O-])ccc32)C(OC(C)=O)C(OC(C)=O)C1OC(C)=O (stereo not given)
inactive: dose: 50.0 mg/kg/injection, schedule: Q01DX001 (ip), vehicle: saline 97 % of control | [1] 96 % of control | [2] 96 % of control

c1cc[c]([Sn]([S]c2ncnc3c2nc[n]3[Sn]([c]2ccccc2)([c]2ccccc2)[c]2ccccc2)([c]2ccccc2)[c]2ccccc2)cc1.c1cc[c]([Sn]([S]c2ncnc3nc[nH]c23)([c]2ccccc2)[c]2ccccc2)cc1
inactive: dose: 5.0 mg/kg/injection, schedule: Q01DX001 (ip), vehicle: other 122 % of control | dose: 10.0 mg/kg/injection, schedule: Q01DX001 (ip), vehicle: other 100 % of control | dose: 20.0 mg/kg/injection, schedule: Q01DX001 (ip), vehicle: other 100 % of control

COC(=O)C(C)C(C)(O)C(C)(C)C (stereo not given)
inactive: [3] 101 % of control

Nc1cc(OCc2ccccc2)ncn1
inactive: dose: 25.0 mg/kg/injection, schedule: Q01DX001 (ip), vehicle: Klucel (hydroxypropylcellulose) (HPC) 103 % of control | dose: 50.0 mg/kg/injection, schedule: Q01DX001 (ip), vehicle: Klucel (hydroxypropylcellulose) (HPC) 109 % of control | [4] 97 % of control

NNC(=O)CNc1cccc(Cl)c1F
inactive: dose: 25.0 mg/kg/injection, schedule: Q04DX002 (ip), vehicle: Klucel (hydroxypropylcellulose) (HPC) 92 % of control | dose: 50.0 mg/kg/injection, schedule: Q04DX002 (ip), vehicle: Klucel (hydroxypropylcellulose) (HPC) 92 % of control | dose: 100.0 mg/kg/injection, schedule: Q04DX002 (ip), vehicle: Klucel (hydroxypropylcellulose) (HPC) 122 % of control

COCCCNS(=O)(=O)c1ncnc2nc[nH]c12
inactive: dose: 10.0 mg/kg/injection, schedule: Q01DX Z (ip), vehicle: carboxymethylcellulose (CMC) 105 % of control | dose: 20.0 mg/kg/injection, schedule: Q01DX Z (ip), vehicle: carboxymethylcellulose (CMC) 103 % of control | dose: 25.0 mg/kg/injection, schedule: Q01DX Z (ip), vehicle: carboxymethylcellulose (CMC) 105 % of control | dose: 40.0 mg/kg/injection, schedule: Q01DX Z (ip), vehicle: carboxymethylcellulose (CMC) 103 % of control | dose: 50.0 mg/kg/injection, schedule: Q01DX Z (ip), vehicle: carboxymethylcellulose (CMC) 110 % of control | dose: 80.0 mg/kg/injection, schedule: Q01DX Z (ip), vehicle: carboxymethylcellulose (CMC) 93 % of control | dose: 100.0 mg/kg/injection, schedule: Q01DX Z (ip), vehicle: carboxymethylcellulose (CMC) 117 % of control | dose: 125.0 mg/kg/injection, schedule: Q01DX Z (ip), vehicle: carboxymethylcellulose (CMC) 88 % of control | dose: 250.0 mg/kg/injection, schedule: Q01DX Z (ip), vehicle: carboxymethylcellulose (CMC) 87 % of control

CCCSCCCC(=O)O
inactive: [5] 88 % of control | [6] 97 % of control

CC(=O)NC1=C(NC(C)C)C(=O)c2ccccc2C1=O
inactive: dose: 12.5 mg/kg/injection, schedule: Q04DX003 (ip), vehicle: saline with Tween-80 94 % of control

COc1ccc(-c2sc(/N=C/c3cc(OC)c(OC)c(OC)c3)c(C#N)c2C)cc1OC
inactive: [7] 98 % of control and 103 % of control | [8] 93 % of control and 88 % of control | [9] 100 % of control and 88 % of control | [10] 93 % of control | [11] 92 % of control and 87 % of control | [12] 94 % of control and 104 % of control

Cc1ccc(/C([O-])=C(\C(=S)Nc2cccc(C)c2)[n+]2ccccc2)cc1
inactive: [7] 103 % of control and 112 % of control | [8] 93 % of control and 95 % of control | [9] 93 % of control and 100 % of control | [10] 93 % of control and 115 % of control | [11] 95 % of control and 101 % of control | [12] 98 % of control and 107 % of control

c1ccc(-n2nnnc2-c2nnnn2-c2ccccc2)cc1
inactive: [1] 98 % of control | [2] 98 % of control | [13] 101 % of control

CC(=O)Nc1ccc(Cc2ccc3[nH]c(C)cc(=O)c3c2)cc1
inactive: [1] 109 % of control | [2] 98 % of control | [13] 93 % of control

O=C(CNC(=O)OCc1ccccc1)NCC(=O)Oc1ccc([N+](=O)[O-])cc1 (Cbz-Gly-Gly-ONp)
inactive: [7] 108 % of control | [3] 92 % of control | [9] 105 % of control | [14] 94 % of control | [11] 100 % of control | [15] 92 % of control

CC(CC=O)CCCC(C)(C)O (stereo not given)
inactive: dose: 100.0 mg/kg/injection, schedule: Q01DX009 (ip), vehicle: saline 102 % of control | dose: 200.0 mg/kg/injection, schedule: Q01DX009 (ip), vehicle: saline 102 % of control | dose: 400.0 mg/kg/injection, schedule: Q01DX009 (ip), vehicle: saline 93 % of control

c1ccc2cc3nc4cc5ccccc5cc4nc3cc2c1
inactive: dose: 100.0 mg/kg/injection, schedule: Q01DX001 (ip), vehicle: acetone 95 % of control | [7] 93 % of control | dose: 200.0 mg/kg/injection, schedule: Q01DX001 (ip), vehicle: acetone 95 % of control | [9] 103 % of control | dose: 400.0 mg/kg/injection, schedule: Q01DX001 (ip), vehicle: acetone 92 % of control | [11] 87 % of control

Clc1ccc(C=Nc2cccc3ccccc23)c(Cl)c1
inactive: [5] 90 % of control | [6] 98 % of control | dose: 400.0 mg/kg/injection, schedule: Q01DX009 (ip), vehicle: Klucel (hydroxypropylcellulose) (HPC) 93 % of control

O=Cc1ccc(Oc2ccc([N+](=O)[O-])cc2[N+](=O)[O-])cc1
inactive: dose: 25.0 mg/kg/injection, schedule: Q01DX009 (ip), vehicle: water 96 % of control | dose: 50.0 mg/kg/injection, schedule: Q01DX009 (ip), vehicle: water 102 % of control | dose: 100.0 mg/kg/injection, schedule: Q01DX009 (ip), vehicle: water 104 % of control | dose: 200.0 mg/kg/injection, schedule: Q01DX009 (ip), vehicle: water 95 % of control | dose: 400.0 mg/kg/injection, schedule: Q01DX009 (ip), vehicle: water 98 % of control

O=[N+]([O-])c1ccc(N/N=C/c2ccc(N(CCO)CCO)cc2)c([N+](=O)[O-])c1
inactive: dose: 25.0 mg/kg/injection, schedule: Q01DX001 (ip), vehicle: saline with Tween-80 88 % of control | dose: 50.0 mg/kg/injection, schedule: Q01DX001 (ip), vehicle: saline with Tween-80 90 % of control | dose: 100.0 mg/kg/injection, schedule: Q01DX001 (ip), vehicle: saline with Tween-80 98 % of control

C=C(N1CCCCC1)N1CCCCC1
inactive: [8] 100 % of control | [10] 96 % of control | [12] 116 % of control

CC1(C)CCC2(C)CCCCC2C1O (stereo not given)
inactive: dose: 50.0 mg/kg/injection, schedule: Q04DX002 (ip), vehicle: saline with Tween-80 92 % of control | [8] 96 % of control | [10] 101 % of control

CCOC(=O)c1c(NC(C)=O)sc2c1CCCC2
inactive: [16] 108 % of control | [7] 108 % of control | [9] 95 % of control

O=C(O)CCCC1CC(=O)c2c(c(O)c3ccccc3c2O)C1=O (stereo not given)
inactive: [16] 101 % of control | [7] 103 % of control | [3] 101 % of control | [9] 101 % of control | [14] 95 % of control | [15] 95 % of control

NCCOB(c1ccccc1)c1ccccc1
inactive: dose: 3.8 mg/kg/injection, schedule: Q01DX009 (ip), vehicle: saline with Tween-80 94 % of control | dose: 7.5 mg/kg/injection, schedule: Q01DX009 (ip), vehicle: saline with Tween-80 105 % of control | dose: 15.0 mg/kg/injection, schedule: Q01DX009 (ip), vehicle: saline with Tween-80 91 % of control

Cc1ccc(S(=O)(=O)N2CCc3ccccc3C3(C2)OCCO3)cc1
inactive: dose: 100.0 mg/kg/injection, schedule: Q01DX001 (ip), vehicle: carboxymethylcellulose (CMC) 96 % of control | dose: 200.0 mg/kg/injection, schedule: Q01DX001 (ip), vehicle: carboxymethylcellulose (CMC) 96 % of control | dose: 400.0 mg/kg/injection, schedule: Q01DX001 (ip), vehicle: carboxymethylcellulose (CMC) 98 % of control

Cc1ccc(C(O)(c2ccccc2)C2C(c3ccccc3)N2C2CCCCC2)cc1 (stereo not given)
inactive: dose: 100.0 mg/kg/injection, schedule: Q04DX003 (ip), vehicle: saline sonified 92 % of control | dose: 200.0 mg/kg/injection, schedule: Q04DX003 (ip), vehicle: saline sonified 87 % of control | dose: 400.0 mg/kg/injection, schedule: Q04DX003 (ip), vehicle: saline sonified 89 % of control

COc1ccc(NC(=O)CC#N)cc1
inactive: [4] 101 % of control | dose: 200.0 mg/kg/injection, schedule: Q01DX001 (ip), vehicle: Klucel (hydroxypropylcellulose) (HPC) 95 % of control

Reference: PubChem BioAssay AID248 (DTP/NCI, 2004)
